Results from ChEMBL document CHEMBL1145498, “A systematic interaction map of validated kinase inhibitors with Ser/Thr kinases” (Proc Natl Acad Sci U S A, 2007).

How the values were obtained:
[1] = biological target: Casein kinase I isoform gamma-1 (Homo sapiens) (UniProt Q9HCP0)
[2] = biological target: Calcium/calmodulin-dependent protein kinase kinase 2 (Homo sapiens, UniProt Q96RR4)
[3] = biological target: Cyclin-dependent kinase 6 (Homo sapiens) (UniProt Q00534)
[4] = biological target: Dual specificity protein kinase CLK3 (Homo sapiens) (UniProt P49761)
[5] = biological target: Serine/threonine-protein kinase pim-3 (Homo sapiens) (UniProt Q86V86)
[6] = biological target: T1, Lymphokine-activated killer T-cell-originated protein kinase (Homo sapiens) (UniProt Q96KB5)
T1 sequence (whole entry): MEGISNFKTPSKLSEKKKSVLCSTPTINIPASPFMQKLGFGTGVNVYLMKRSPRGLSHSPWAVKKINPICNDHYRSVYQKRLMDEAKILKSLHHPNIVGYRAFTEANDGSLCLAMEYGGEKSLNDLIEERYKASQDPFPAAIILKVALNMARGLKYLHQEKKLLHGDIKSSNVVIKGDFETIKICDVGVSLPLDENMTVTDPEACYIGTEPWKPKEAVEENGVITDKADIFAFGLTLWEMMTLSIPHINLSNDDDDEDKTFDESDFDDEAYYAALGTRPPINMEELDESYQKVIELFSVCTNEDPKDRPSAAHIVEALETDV

[7] = biological target: Death-associated protein kinase 3 (Homo sapiens) (UniProt O43293)
[8] = biological target: cAMP-dependent protein kinase catalytic subunit alpha (Homo sapiens) (UniProt P17612)
[9] = biological target: Dual specificity protein kinase CLK2 (Homo sapiens) (UniProt P49760)
[10] = biological target: Serine/threonine-protein kinase Chk2 (Homo sapiens, UniProt O96017)
[11] = biological target: Serine/threonine-protein kinase Nek6 (Homo sapiens) (UniProt Q9HC98)
[12] = biological target: Mitogen-activated protein kinase 11 (Homo sapiens, UniProt Q15759)
[13] = biological target: STE20-like serine/threonine-protein kinase (Homo sapiens) (UniProt Q9H2G2)
[14] = biological target: Calcium/calmodulin-dependent protein kinase type 1G (Homo sapiens) (UniProt Q96NX5)
[15] = biological target: Mitogen-activated protein kinase 3 (Homo sapiens, UniProt P27361)
[16] = biological target: T2, Serine/threonine-protein kinase PLK4 (Homo sapiens) (UniProt O00444)
T2 sequence (whole entry): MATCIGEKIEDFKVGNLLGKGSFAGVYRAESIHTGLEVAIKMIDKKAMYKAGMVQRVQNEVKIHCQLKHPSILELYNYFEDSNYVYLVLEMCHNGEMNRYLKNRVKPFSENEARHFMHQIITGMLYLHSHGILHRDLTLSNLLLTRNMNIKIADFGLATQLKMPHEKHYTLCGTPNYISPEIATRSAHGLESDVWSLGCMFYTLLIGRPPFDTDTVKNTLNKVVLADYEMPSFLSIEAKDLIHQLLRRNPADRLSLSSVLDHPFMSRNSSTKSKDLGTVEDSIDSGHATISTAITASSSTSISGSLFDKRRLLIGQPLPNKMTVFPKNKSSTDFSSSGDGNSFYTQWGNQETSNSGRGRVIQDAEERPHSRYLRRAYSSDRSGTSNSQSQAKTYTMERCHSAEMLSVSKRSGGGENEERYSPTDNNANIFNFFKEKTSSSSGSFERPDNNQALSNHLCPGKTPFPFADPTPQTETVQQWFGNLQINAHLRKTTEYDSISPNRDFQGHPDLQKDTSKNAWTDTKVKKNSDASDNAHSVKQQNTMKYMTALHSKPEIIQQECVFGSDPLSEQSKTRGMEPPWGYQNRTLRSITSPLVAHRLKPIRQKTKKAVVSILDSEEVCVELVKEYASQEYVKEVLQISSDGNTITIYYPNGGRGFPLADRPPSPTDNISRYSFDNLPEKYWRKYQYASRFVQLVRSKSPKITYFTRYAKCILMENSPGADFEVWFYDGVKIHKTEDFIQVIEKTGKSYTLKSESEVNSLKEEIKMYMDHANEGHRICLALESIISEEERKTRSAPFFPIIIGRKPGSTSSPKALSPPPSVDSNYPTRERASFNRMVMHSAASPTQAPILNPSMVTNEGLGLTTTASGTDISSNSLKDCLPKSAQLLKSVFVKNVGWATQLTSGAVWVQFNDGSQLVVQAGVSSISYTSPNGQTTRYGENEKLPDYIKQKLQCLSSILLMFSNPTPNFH

[17] = biological target: Serine/threonine-protein kinase pim-2 (Homo sapiens, UniProt Q9P1W9)
[18] = biological target: Tyrosine-protein kinase JAK1 (Homo sapiens) (UniProt P23458)
[19] = biological target: T3, Serine/threonine-protein kinase VRK3 (Homo sapiens) (UniProt Q8IV63)
T3 sequence (whole entry): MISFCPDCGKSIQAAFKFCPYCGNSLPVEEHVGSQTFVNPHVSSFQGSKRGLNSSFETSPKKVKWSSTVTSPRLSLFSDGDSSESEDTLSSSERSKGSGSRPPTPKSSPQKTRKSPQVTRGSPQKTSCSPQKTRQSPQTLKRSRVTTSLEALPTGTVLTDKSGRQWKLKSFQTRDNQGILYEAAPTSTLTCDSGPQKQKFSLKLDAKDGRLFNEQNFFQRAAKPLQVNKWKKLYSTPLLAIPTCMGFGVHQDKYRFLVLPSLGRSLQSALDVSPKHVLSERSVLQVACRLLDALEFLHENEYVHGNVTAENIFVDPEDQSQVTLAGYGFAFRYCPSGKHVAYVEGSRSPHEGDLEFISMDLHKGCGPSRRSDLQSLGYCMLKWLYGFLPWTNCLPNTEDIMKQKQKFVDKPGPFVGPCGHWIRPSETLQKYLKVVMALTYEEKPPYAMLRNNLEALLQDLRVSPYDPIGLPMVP

[20] = biological target: Ribosomal protein S6 kinase alpha-3 (Homo sapiens) (UniProt P51812)
[21] = biological target: Serine/threonine-protein kinase OSR1 (Homo sapiens) (UniProt O95747)
Serine/threonine-protein kinase OSR1 (Homo sapiens), sequence (O95747 2-527 limits assumed): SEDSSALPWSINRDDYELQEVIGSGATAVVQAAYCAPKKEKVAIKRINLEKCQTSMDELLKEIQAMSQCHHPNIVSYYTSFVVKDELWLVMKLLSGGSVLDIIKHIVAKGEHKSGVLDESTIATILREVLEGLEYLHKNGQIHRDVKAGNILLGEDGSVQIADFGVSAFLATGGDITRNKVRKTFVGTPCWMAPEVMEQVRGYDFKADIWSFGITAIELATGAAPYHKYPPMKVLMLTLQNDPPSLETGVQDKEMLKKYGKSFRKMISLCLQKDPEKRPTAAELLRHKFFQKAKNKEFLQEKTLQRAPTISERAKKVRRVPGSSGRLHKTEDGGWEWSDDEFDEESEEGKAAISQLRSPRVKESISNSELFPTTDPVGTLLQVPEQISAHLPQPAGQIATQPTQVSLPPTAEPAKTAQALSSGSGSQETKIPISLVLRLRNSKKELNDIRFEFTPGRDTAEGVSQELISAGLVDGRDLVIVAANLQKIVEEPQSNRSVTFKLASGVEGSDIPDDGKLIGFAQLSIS

Serine/threonine-protein kinase Nek6 (Homo sapiens), sequence (Q9HC98 whole entry): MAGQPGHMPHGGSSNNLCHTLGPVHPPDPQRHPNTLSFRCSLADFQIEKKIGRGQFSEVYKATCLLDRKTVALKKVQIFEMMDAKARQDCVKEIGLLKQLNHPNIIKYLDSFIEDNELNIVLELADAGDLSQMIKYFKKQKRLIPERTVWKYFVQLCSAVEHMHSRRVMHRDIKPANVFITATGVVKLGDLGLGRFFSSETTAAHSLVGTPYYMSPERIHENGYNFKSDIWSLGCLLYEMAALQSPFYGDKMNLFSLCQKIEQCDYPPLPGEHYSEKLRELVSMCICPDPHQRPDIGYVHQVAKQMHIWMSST
Dual specificity protein kinase CLK3 (Homo sapiens), sequence (P49761 whole entry, looked up): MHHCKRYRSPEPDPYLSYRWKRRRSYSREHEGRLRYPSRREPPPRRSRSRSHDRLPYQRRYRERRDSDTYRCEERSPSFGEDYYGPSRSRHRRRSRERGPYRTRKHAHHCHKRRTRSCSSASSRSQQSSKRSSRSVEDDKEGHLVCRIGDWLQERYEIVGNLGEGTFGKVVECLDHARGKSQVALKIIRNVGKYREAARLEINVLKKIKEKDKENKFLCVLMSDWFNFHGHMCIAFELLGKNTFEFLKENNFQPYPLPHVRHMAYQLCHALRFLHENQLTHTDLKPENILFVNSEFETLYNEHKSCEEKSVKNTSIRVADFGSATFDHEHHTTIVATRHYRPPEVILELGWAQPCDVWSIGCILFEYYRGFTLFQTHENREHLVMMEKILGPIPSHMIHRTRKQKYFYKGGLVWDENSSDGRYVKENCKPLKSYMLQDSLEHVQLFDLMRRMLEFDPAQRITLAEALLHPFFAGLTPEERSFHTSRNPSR
Cyclin-dependent kinase 6 (Homo sapiens), sequence (Q00534 whole entry): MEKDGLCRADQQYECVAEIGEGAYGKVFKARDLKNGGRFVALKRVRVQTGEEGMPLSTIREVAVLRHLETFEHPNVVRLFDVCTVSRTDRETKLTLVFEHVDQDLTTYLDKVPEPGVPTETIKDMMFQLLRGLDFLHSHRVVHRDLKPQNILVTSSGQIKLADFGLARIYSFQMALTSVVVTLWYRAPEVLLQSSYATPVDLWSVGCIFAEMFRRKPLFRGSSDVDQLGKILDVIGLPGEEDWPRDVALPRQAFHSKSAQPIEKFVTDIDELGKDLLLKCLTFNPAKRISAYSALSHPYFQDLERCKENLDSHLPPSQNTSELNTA
Calcium/calmodulin-dependent protein kinase type 1G (Homo sapiens), sequence (Q96NX5 whole entry): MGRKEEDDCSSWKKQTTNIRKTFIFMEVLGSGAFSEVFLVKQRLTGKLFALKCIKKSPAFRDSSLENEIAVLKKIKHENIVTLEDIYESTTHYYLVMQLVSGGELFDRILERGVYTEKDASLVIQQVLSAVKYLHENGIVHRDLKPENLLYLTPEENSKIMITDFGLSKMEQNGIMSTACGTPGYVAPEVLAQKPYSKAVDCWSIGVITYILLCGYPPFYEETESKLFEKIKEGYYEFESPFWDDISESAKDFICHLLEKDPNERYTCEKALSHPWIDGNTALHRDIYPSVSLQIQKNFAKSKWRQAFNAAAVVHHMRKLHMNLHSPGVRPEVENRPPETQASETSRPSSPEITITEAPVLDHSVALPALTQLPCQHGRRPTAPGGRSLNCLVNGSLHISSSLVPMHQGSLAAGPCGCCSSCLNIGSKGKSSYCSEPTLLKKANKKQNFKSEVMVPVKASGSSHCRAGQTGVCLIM
Dual specificity protein kinase CLK2 (Homo sapiens), sequence (P49760 whole entry, looked up): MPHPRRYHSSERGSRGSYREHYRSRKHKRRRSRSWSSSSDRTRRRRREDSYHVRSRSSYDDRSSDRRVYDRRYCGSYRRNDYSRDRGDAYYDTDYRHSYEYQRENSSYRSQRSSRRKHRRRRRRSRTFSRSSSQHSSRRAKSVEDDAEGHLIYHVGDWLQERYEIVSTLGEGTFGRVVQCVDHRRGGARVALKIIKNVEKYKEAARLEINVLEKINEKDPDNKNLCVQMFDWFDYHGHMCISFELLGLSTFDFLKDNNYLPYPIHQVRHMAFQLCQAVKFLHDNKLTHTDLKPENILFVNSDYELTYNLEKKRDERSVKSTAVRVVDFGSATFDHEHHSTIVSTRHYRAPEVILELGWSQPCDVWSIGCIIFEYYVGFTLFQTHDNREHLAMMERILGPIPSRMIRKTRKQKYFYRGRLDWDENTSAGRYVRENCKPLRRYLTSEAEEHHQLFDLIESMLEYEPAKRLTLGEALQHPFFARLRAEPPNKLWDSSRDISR
STE20-like serine/threonine-protein kinase (Homo sapiens), sequence (Q9H2G2 whole entry, looked up): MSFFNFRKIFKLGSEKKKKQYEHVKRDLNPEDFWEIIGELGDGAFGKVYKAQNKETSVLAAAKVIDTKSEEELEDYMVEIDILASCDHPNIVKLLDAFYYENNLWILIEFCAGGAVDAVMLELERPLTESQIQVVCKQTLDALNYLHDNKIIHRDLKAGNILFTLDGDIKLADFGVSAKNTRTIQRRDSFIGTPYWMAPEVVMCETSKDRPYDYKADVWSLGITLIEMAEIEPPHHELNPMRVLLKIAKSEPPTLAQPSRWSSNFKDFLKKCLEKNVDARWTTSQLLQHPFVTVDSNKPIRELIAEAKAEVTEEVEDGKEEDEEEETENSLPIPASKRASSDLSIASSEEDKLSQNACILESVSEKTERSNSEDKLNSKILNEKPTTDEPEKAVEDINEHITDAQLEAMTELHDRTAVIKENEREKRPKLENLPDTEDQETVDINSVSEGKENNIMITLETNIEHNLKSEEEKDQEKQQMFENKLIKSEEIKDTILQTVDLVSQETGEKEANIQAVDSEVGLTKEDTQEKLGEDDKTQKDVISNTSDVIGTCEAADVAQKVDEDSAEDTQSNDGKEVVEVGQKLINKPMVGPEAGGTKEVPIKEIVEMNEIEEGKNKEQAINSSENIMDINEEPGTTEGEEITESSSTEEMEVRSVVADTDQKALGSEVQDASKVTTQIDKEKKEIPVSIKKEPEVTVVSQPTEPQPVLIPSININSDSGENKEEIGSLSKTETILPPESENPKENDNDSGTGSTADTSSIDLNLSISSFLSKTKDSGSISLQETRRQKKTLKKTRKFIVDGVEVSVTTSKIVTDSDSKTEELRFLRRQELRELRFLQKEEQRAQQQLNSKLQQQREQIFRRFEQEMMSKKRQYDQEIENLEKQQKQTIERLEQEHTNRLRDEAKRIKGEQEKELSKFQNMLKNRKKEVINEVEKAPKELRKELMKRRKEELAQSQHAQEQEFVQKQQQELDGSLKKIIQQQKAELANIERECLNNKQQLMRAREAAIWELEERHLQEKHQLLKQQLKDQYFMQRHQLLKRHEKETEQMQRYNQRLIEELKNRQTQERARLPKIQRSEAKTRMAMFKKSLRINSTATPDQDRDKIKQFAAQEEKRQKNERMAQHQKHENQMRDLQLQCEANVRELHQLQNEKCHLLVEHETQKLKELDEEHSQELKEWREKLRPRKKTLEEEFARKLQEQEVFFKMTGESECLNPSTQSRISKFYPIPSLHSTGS
Serine/threonine-protein kinase Chk2, sequence (O96017 whole entry): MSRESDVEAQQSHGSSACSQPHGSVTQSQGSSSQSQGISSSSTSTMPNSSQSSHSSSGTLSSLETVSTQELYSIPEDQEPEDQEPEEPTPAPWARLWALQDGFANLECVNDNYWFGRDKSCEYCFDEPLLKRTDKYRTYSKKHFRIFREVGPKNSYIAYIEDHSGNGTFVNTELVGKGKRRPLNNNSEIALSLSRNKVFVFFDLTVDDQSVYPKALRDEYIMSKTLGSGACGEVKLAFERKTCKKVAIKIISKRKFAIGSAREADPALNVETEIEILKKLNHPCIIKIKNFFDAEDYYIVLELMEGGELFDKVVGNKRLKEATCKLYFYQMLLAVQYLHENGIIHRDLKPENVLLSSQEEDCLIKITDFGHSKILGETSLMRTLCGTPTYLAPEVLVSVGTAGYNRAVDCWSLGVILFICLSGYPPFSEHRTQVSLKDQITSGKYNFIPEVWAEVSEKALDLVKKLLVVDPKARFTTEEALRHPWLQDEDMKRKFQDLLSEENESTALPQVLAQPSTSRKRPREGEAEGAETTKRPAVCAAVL

| SMILES | ΔTm [1] | ΔTm [2] | ΔTm [3] | ΔTm [4] | ΔTm [5] | ΔTm [6] | ΔTm [7] | ΔTm [8] | ΔTm [9] | ΔTm [10] | ΔTm [11] | ΔTm [12] | ΔTm [13] | ΔTm [14] | ΔTm [15] | ΔTm [16] | ΔTm [17] | ΔTm [18] | ΔTm [19] | ΔTm [20] | further results |
| --- | --- | --- | --- | --- | --- | --- | --- | --- | --- | --- | --- | --- | --- | --- | --- | --- | --- | --- | --- | --- | --- |
| N#CC(C#N)=Cc1ccc(O)c(O)c1 [TYRPHOSTIN 23] | 0.4 °C | -0.7 °C | 0.2 °C | 0.4 °C | 1.6 °C | 0.4 °C | 0.7 °C | 0.6 °C | 0.1 °C | 0.7 °C | 0.6 °C | 0.3 °C | 0.6 °C | 0 °C | 0.3 °C | 0.7 °C | 1 °C | 0.1 °C | -0.2 °C | 2.7 °C | ΔTm [21]: 0.8 °C |
| CN(C)CCCn1cc(C2=C(c3c[nH]c4ccccc34)C(=O)NC2=O)c2ccccc21 [GF-109203] | 1 °C | 2.6 °C | 0.4 °C | 2.7 °C | 9.1 °C | 0.2 °C | 2.8 °C | 3.6 °C | 4.1 °C | 7.1 °C | 0.9 °C | 0.7 °C | 6.8 °C | 0.6 °C | 0.6 °C | 3 °C | 5.2 °C | 1.5 °C | 0 °C | 0.8 °C | ΔTm [21]: 2.4 °C |
| Nc1n[nH]c2nc3ccccc3nc12 [QUINOXALINE1] | 0.7 °C | 0.2 °C | 0.6 °C | 0.5 °C | 1.3 °C | 0.5 °C | 1 °C | 0.6 °C | 1.4 °C | 0.5 °C | -0.3 °C | 1 °C | 2 °C | 0.2 °C | 0.3 °C | 1.5 °C | 1.3 °C | 2.2 °C | 0.4 °C | 0.9 °C | ΔTm [21]: 0.7 °C |
| COc1cc(OC)c(/C=C2\C(=O)Nc3ccccc32)c(OC)c1 | 0.5 °C | 0.4 °C | 0.3 °C | 0 °C | 1 °C | 0.5 °C | -0.3 °C | 0.4 °C | 0.3 °C | -0.7 °C | 0 °C | 0.6 °C | 0.1 °C | 0 °C | 0 °C | 0.3 °C | 0.5 °C | 0.5 °C | 0.7 °C | 0.1 °C | ΔTm [21]: 0.2 °C |
| C/C(O)=C(\C#N)C(=O)Nc1cc(Br)ccc1Br | 0.7 °C | -0.1 °C | 0.2 °C | 0.3 °C | 3.8 °C | 0.8 °C | 0.7 °C | 1.4 °C | 0.5 °C | 0.5 °C | -0.2 °C | 0.3 °C | 0.4 °C | -0.1 °C | 0.3 °C | 1.1 °C | 1.9 °C | 0.7 °C | -0.3 °C | 0.2 °C | ΔTm [21]: 1.1 °C |
| O=C1Nc2ccc(S(=O)(=O)O)cc2/C1=C1/Nc2ccccc2/C1=N\O | 4 °C | 4.9 °C | 2.9 °C | 3.5 °C | 5.1 °C | 0.4 °C | 6.4 °C | 1.2 °C | 3.7 °C | 4.5 °C | 0.8 °C | 1.4 °C | 1.1 °C | 2 °C | 2.4 °C | 10.4 °C | 3.5 °C | 4.3 °C | 1.9 °C | 6.1 °C | ΔTm [21]: 0.1 °C |
| Cl.Cn1cc(C2=C(c3ccc4cc5n(c4c3)CCC(CN)C5)C(=O)NC2=O)c2ccccc21 (stereo not drawn) | 0.5 °C | -1.3 °C | 1 °C | 0 °C | 4.7 °C | -0.6 °C | 0.7 °C | 1.5 °C | 1 °C | 1 °C | -0.7 °C | -0.1 °C | 4.5 °C | 0.3 °C | -0.5 °C | 0.1 °C | 3.1 °C | -2.8 °C | 0.6 °C | 0.1 °C | ΔTm [21]: -0.1 °C |
| CCOc1ccc(/C=C2/SC(=O)N(CCN)C2=O)cc1 [HIAZOLIDINEDIONE1] | 0.3 °C | -0.4 °C | 0.2 °C | 0.1 °C | 0.5 °C | 0.2 °C | 0.3 °C | 0.5 °C | 0.2 °C | 0.7 °C | -1.7 °C | 0.5 °C | -0.4 °C | 0.2 °C | -0.1 °C | 0.3 °C | -0.1 °C | -0.1 °C | -1.1 °C | 0 °C | ΔTm [21]: -0.1 °C |
